For one experiment, the system named is H2-K1 on ID8 cells. The experiment is described as follows: cell surface MHC class I H2-K1 by FACS, ID8. In kind it is cell-based, mouse. As to conditions: ID8, in response to IFNγ. The text has this:
FIG. 4A-FIG. 4M show KDM5A regulates antigen processing and presentation pathway. (FIG. 4A) Experimental strategy used to identify Kdm5a direct target genes. […] (FIG. 4B) CUT&RUN tracks of the newly identified Kdm5a target gene H2-K1 for Kdm5a and H3K4me3 in ID8 cells. (FIG. 4C) Expression of H2-K1 in doxycycline-inducible shKdm5a ID8 cells, Kdm5a inhibitor CPI-455, or Kdm5a knockout cells with or without IFNγ stimulation determined by RT-qPCR. (FIG. 4D) Cell surface expression of H2-K1 in control and Kdm5a knockout ID8 cells with or without IFNy stimulation was determined by FACS analysis. (FIG. 4E) Quantification of FIG. 4D. (FIG. 4F) Cell surface expression of H2-K1 in control and doxycyclineinducible Kdm5a-knockdown ID8 cells with or without IFNγ stimulation was determined by FACS analysis. (FIG. 4G) Quantification of FIG. 4F. (FIG. 4H) Cell surface expression of H2-K1 in D8 cells treated with vehicle or CPI-455 with or without IFNγ stimulation was determined by FACS analysis. (FIG. 4I) Quantification of FIG. 4H; An isotype matched IgG was used as a negative control for all the FACS analysis. […] Data represent mean±SEM of three biological repeats; P-value was calculated by using a two-tailed Student t test except in FIG. 4L by using Pearson r analysis test and FIG. 4M by using Fisher's exact test. […]
In general terms: In flow cytometry, cells or beads pass a laser one at a time.

Another experiment concerns H3K4me3 in HGS2 cells. The experiment is described as follows: immunoblot of H3K4me3, HGS2. Format: cell-based, mouse. Particulars: HGS2, 10 μM, 72 hours. As for the experimental part: FIG. 6A-FIG. 6K show KDM5A inhibition promotes anti-tumor immune response in vivo. (FIG. 6A) Expression of H3K4me3, Kdm5a and a loading control b-actin in an independent second doxycycline-inducible shKdm5a ID8 clone treated with or without 2 μg/mL of doxycycline. (FIG. 6B) Same as FIG. 6A, but doxycycline-inducible shKdm5a ID8 cells were plated into 24 well plates and treated with 2 μg/mL of doxycycline the same day. Cells were incubated for 8 days. Relative cell viability was determined by colony formation assay. (FIG. 6C) Expression of H3K4me3, Kdm5a and a loading control b-actin in HGS2 cells treated 10 μM of CPI-455 or vehicle controls for 72 hours. […] Relative cell viability was determined by colony formation assay. (FIG. 6E-FIG. 6F) Bioluminescence signal was measured by IVIS system in indicated animal groups in the immunocompetent C57BL/6 mouse model once a week (FIG. 6E) and the survival of the indicated groups was determined by Kaplan-Meier survival curves (FIG. 6F) (n=5 mice per group). […] Ascites volumes produced from the indicated groups were quantified (FIG. 6H). n=5 mice per group. […] (FIG. 6J-FIG. 6K) Bioluminescence signal was measured by IVIS system in indicated animal groups in the immunocompromised NSG mouse model once a week (FIG. 6J), or examined for Kaplan-Meier survival curves for the indicated groups (FIG. 6K). […]
For orientation: A western blot detects proteins with antibodies after separation by electrophoresis.

Results on one substance are retold here after patent publication US20240139197A1, “INHIBITION OF KDM5A FOR PROMOTING ANTIGEN PRESENTATION, INCREASING CD8+ T CELL INFILTRATION AND BOOSTING ANTI-TUMOR IMMUNE RESPONSE” (The Wistar Institute of Anatomy and Biology, priority 2022, published 2024).

Turning to CPI-455, the “MHC class I presence on cell surface” value with H2-K1 on ID8 cells is listed as “increased MHC class I presence on cell surface”. In the experiment on H3K4me3 in HGS2 cells, the H3K4me3 levels entry is “increase H3K4me3 levels”.
